Source: patent US7608612B2, “Radiosensitizer formulations and methods for use” (priority 2005, dated 2009)
Entries after “also recorded” stand apart in the source; their conditions may differ.

Legend:
[1] = tested on: Chinese hamster ovary (CHO) cells; assay: In vitro synergism of buthionine sulfoximine and 4(5)-nitrohistidine as radiosensitizers; format: cell-based; conditions: compounds at 2 mM, radiation 0 to 10 Gy
Description: Buthionine sulfoximine is an agent known to deplete the levels of endogenous detoxifier and radioprotector glutathione. […] In several experiments, as here, the enhancement ration was greater than two with both agents present. CHO cells were used in the experiments and trhe compounds were present at 2 mM concentration as indicated.
Chinese hamster ovary cells were grown on F12 medium supplemented with fetal calf serum. Cells were treated with dosages of radiation from 0 to 10 Gy, using a 9 MeV electron beam as above, either alone or in the presence of nitrohistidine, buthionine sulfoximine, or 4(5)-nitrohistidine plus buthionine sulfoximine together. When present, the buthionine sulfoximine and 4(5)-nitrohistidine were added at 2 mM concentration. […] S. fractions remaining for the combined dual drug/radiation treatment indicate an initial lag time, before continued depletion of cells surviving, down to less than 0.01 SF at 10 Gy in the presence of both NHis and BSO. The enhancement ratio calculated for the combined treatment was greater than two over that of any other treatment combination.

Lewis lung carcinoma [2] = assay: In vivo growth retardation experiment 2 with Lewis lung carcinoma (comparison with misonidazole); set-up: species or system mice; conditions: for tumor growth course (in words): mice with Lewis lung carcinoma, radiosensitizer plus radiation
Source text: Another growth retardation study was done in mice implanted with Lewis lung carcinoma comparing 4(5)-nitrohistidine (NHis) plus radiation treatment to misonidazole plus radiation treatment.

tumors = conditions: number of trials out of all trials; cited from earlier work
protozoa = conditions: Brossi et al.; cited from earlier work
Lewis lung carcinoma [3] = assay: In vivo growth retardation experiment 1 with Lewis lung carcinoma; set-up: species or system mice (C-57)
Description: FIG. 4 is an in vivo Growth Retardation Study of Lewis lung carcinoma in […]. Groups of 5-6 mice were subcutaneously implanted with Lewis Lung Carcinoma cells and permitted to grow a small measurable tumor in the hind leg. Radiosensitizers were given by i.p. injection. In some comparative experiments, nitrohistidine was employed at half the concentration of misonidazole. The measurable tumors were treated with a single 500 cGy fraction of 9 MeV electrons.
FIG. 5 is a tumor size assessment plot from the Growth Retardation Study of FIG. 4, showing tumor size as a function of time (in days).
Groups of 5-6 mice (C-57) were subcutaneously implanted in the hind leg with Lewis lung carcinoma cells and the cells were permitted to grow until a measurable tumor was evident. Radiosensitizers were administered using i.p. injection at 2 mM concentration, and then treated with a single 500 cGy dose administered with a 9 MeV electron beam and tumor size measured daily for a period of 9 days. Control mice were implanted with tumor cells and left untreated.

[4] = tested on: Chinese hamster ovary (CHO) cells; assay: In vitro study of 4(5)-nitrohistidine as a radiosensitizer, 300 cGy 9 MeV electron beam; format: cell-based
Description: FIG. 2A is an in vitro study of nitrohistidine on Chinese hamster ovary (CHO) cells. CHO cells were in use in an F12 medium with fetal calf serum. A 9 MeV electron beam was used to irradiate the Petri dishes, dose 300 cGy, and a concentration range of 1-4 mM nitrohistidine was employed.
FIG. 2B is an in vitro study of nitrohistidine compared to misonidazole on CHO cells.
An in vitro study using Chinese hamster ovary (CHO) cells was carried out using F12 medium with fetal calf serum for growth of the CHO cells. A 9 MeV electron beam, generated by a Varian Clinac 1800 instrument, was used to irradiate the Petri dishes, at a dose of 300 cGy, and a concentration of 1 to 4 mM 4(5)-nitrohistidine was added alone, or in combination with the radiation dose.

[5] = tested on: Chinese hamster ovary (CHO) cells; assay: In vitro study of 4(5)-nitrohistidine as a radiosensitizer under hypoxic conditions; format: cell-based; conditions: 30 min hypoxic pre-incubation
[6] = first group of mice, NHis+XRT, day 9
[7] = second group of mice, NHis+XRT, day 9

SMILES	radiosensitization / synergism (in words) [1]	tumor growth course (in words) (Lewis lung carcinoma [2])	clinical trials that suggested any clinical benefit as a radiosensitizer (tumors)	efficacy as an anti-protozoal agent relative to known anti-protozoal nitroimidazole agents (protozoa)	in vivo radiosensitizer potency compared with misonidazole (Lewis lung carcinoma [2]; plus radiation, in vivo)	growth retardation compared to the control group (Lewis lung carcinoma [3]; [6])	growth retardation compared to the group treated with radiation alone (Lewis lung carcinoma [3]; [6])	tumor size at day 9 (Lewis lung carcinoma [3]; first group of mice, NHis+XRT, i.p., single 500 cGy dose)	tumor size at day 9 (Lewis lung carcinoma [3]; second group of mice, NHis alone without radiation (same value given for control))	tumor size at day 9 (Lewis lung carcinoma [3]; second group of mice, NHis+XRT)	growth retardation compared to the XRT treatment alone (Lewis lung carcinoma [3]; [7])	growth retardation compared to the control or NHis alone (Lewis lung carcinoma [3]; [7])	toxicity of nitrohistidine alone (S. fraction, surviving fraction of cells) ([4]; 1-4 mM nitrohistidine, no radiation)	effective concentration range for radiosensitization ([4]; 300 cGy)	S. fraction (surviving fraction) in the presence of ionizing radiation (Nitro+XRT) ([4]; 300 cGy, all four concentrations 1 to 4 mM)	radiosensitizing effectiveness of 2 mM compared with 5 mM ([4]; additional studies, data not shown)	S. Fraction at 10 Gy ([5]; 2 mM plus radiation)	calculated enhancement ratio ([5]; 2 mM, at the 0.1 level SF value (90% killing), versus radiation alone)
CCCCS(=N)(=O)CCC(N)C(=O)O (stereo not shown) [Buthionine sulfoximine, buthionine sulfoximine]	some radiosensitization properties of its own	–	–	–	–	–	–	–	–	–	–	–	–	–	–	–	–	–
COCC(O)Cn1ccnc1[N+](=O)[O-] (stereo not shown) [misonidazole, reference compound]	–	no ability to retard tumor growth	5 of 38	–	–	–	–	–	–	–	–	–	–	–	–	–	–	–
NC(Cc1nc[nH]c1[N+](=O)[O-])C(=O)O (stereo not shown) [4(5)-nitrohistidine]	–	plateau in tumor growth after 9-10 days	–	zero	more potent and effective radiosensitizer than misonidazole	about 22%	about 10%	about 18 mm	about 21 mm	about 15 mm	~35%	about 29%	did not appear to possess toxicity by itself; also recorded: did not exhibit any toxicity	1 to 4 mM	under 0.6	nearly as effective as 5 mM	about 0.006	1.38
